Source: PubChem BioAssay AID330 (DTP/NCI, 2004)
Several values for one entry are separate records, joined by “and”; a condition that tells them apart may be missing. Identical values can stand only once. Inconclusive results and toxic doses are left out. Peptide text beside a SMILES is read from it.

System: P388 leukemia ip, CD2F1 mice, survival T/C
Assay: NCI In Vivo Anticancer Drug Screen. Data for tumor model P388 Leukemia (intraperitoneal) in CD2F1 (CDF1) mice
Conditions: endpoint: median survival time, higher = longer survival
How it was run: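 Mice carrying the transplanted tumor received test compound or vehicle. Survival was recorded in each group, and the value is the treated-group measurement divided by that of the vehicle-treated control group.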

[1] = dose: 60.0 mg/kg/injection, schedule: Q01DX005 (ip), vehicle: saline
[2] = dose: 120.0 mg/kg/injection, schedule: Q01DX005 (ip), vehicle: saline
[3] = dose: 240.0 mg/kg/injection, schedule: Q01DX005 (ip), vehicle: saline
[4] = dose: 25.0 mg/kg/injection, schedule: Q01DX005 (ip), vehicle: saline
[5] = dose: 50.0 mg/kg/injection, schedule: Q01DX005 (ip), vehicle: saline
[6] = dose: 50.0 mg/kg/injection, schedule: Q01DX005 (ip), vehicle: saline with Tween-80
[7] = dose: 100.0 mg/kg/injection, schedule: Q01DX005 (ip), vehicle: saline with Tween-80
[8] = dose: 200.0 mg/kg/injection, schedule: Q01DX005 (ip), vehicle: saline with Tween-80
[9] = dose: 50.0 mg/kg/injection, schedule: Q01DX009 (ip), vehicle: saline with Tween-80
[10] = dose: 50.0 mg/kg/injection, schedule: Q01DX009 (ip), vehicle: saline
[11] = dose: 100.0 mg/kg/injection, schedule: Q01DX009 (ip), vehicle: saline with Tween-80
[12] = dose: 100.0 mg/kg/injection, schedule: Q01DX009 (ip), vehicle: saline
[13] = dose: 200.0 mg/kg/injection, schedule: Q01DX009 (ip), vehicle: saline
[14] = dose: 60.0 mg/kg/injection, schedule: Q01DX005 (ip), vehicle: saline with Tween-80
[15] = dose: 120.0 mg/kg/injection, schedule: Q01DX005 (ip), vehicle: saline with Tween-80
[16] = dose: 240.0 mg/kg/injection, schedule: Q01DX005 (ip), vehicle: saline with Tween-80
[17] = dose: 50.0 mg/kg/injection, schedule: Q01DX009 (ip), vehicle: Klucel (hydroxypropylcellulose) (HPC)
[18] = dose: 200.0 mg/kg/injection, schedule: Q01DX009 (ip), vehicle: saline with Tween-80

CC12CC3OC(=O)C1COC14OC5(C2C1=O)C(O)(CCC1C4CC(O)C2(O)CC=CC(=O)C12C)C(=O)OC35C (stereo not drawn)
T/C (dose: 12.0 mg/kg/injection, schedule: Q01DX009 (ip), vehicle: Klucel (hydroxypropylcellulose) (HPC)): 94 % of control
T/C (dose: 24.0 mg/kg/injection, schedule: Q01DX009 (ip), vehicle: Klucel (hydroxypropylcellulose) (HPC)): 110 % of control
T/C (dose: 48.0 mg/kg/injection, schedule: Q01DX009 (ip), vehicle: Klucel (hydroxypropylcellulose) (HPC)): 109 % of control

CCC1C(=O)CC(C(=O)O)C1C(=O)O (stereo not drawn)
T/C (dose: 30.0 mg/kg/injection, schedule: Q01DX005 (ip), vehicle: saline): 98 % of control
T/C [1]: 98 % of control and 96 % of control
T/C [2]: 95 % of control
T/C [3]: 86 % of control

NC(=O)C(NC(=O)c1ccc([N+](=O)[O-])cc1)C(N)=O
T/C (dose: 100.0 mg/kg/injection, schedule: Q04DX003 (ip), vehicle: saline): 103 % of control
T/C (dose: 200.0 mg/kg/injection, schedule: Q04DX003 (ip), vehicle: saline): 103 % of control
T/C (dose: 400.0 mg/kg/injection, schedule: Q04DX003 (ip), vehicle: saline): 103 % of control

CC(N)C(=O)NCC(=O)NC(CO)C(=O)NC(CCC(=O)O)C(=O)O (stereo not drawn) (H-AGSE-OH; configuration not given here)
T/C (dose: 9.0 mg/kg/injection, schedule: Q01DX005 (ip), vehicle: water): 96 % of control
T/C (dose: 18.0 mg/kg/injection, schedule: Q01DX005 (ip), vehicle: water): 102 % of control
T/C (dose: 36.0 mg/kg/injection, schedule: Q01DX005 (ip), vehicle: water): 100 % of control
T/C (dose: 72.0 mg/kg/injection, schedule: Q01DX005 (ip), vehicle: water): 110 % of control
T/C (dose: 144.0 mg/kg/injection, schedule: Q01DX005 (ip), vehicle: water): 103 % of control

CC(=O)Nc1ccsc1
T/C [4]: 102 % of control
T/C [5]: 104 % of control
T/C (dose: 100.0 mg/kg/injection, schedule: Q01DX005 (ip), vehicle: saline): 109 % of control

CC1(C)[C@@H]2CC[C@]3(C)[C@H]4CC[C@]5(C)[C@@H](O)CC[C@H]5[C@@H]4CC[C@]3(O2)[C@@H]1O
T/C [6]: 91 % of control
T/C [7]: 91 % of control

CC1=CC(C)(C)N(C)C(N)=N1
T/C (dose: 12.5 mg/kg/injection, schedule: Q01DX005 (ip), vehicle: saline): 100 % of control
T/C [4]: 91 % of control
T/C [5]: 91 % of control

CN1C(=O)/C(=C\c2ccccc2)N=C(c2ccccc2)c2cc(Cl)ccc21
T/C (dose: 25.0 mg/kg/injection, schedule: Q01DX005 (ip), vehicle: saline with Tween-80): 110 % of control
T/C [6]: 96 % of control
T/C [7]: 91 % of control

CCOc1c(N=Nc2ccccc2C)c(-c2ccccc2)nn1C(N)=S
T/C [6]: 90 % of control
T/C [7]: 88 % of control
T/C [8]: 90 % of control

S=C(Nc1ccccn1)c1ccccn1
T/C [9]: 95 % of control
T/C [10]: 105 % of control
T/C [11]: 88 % of control
T/C [12]: 103 % of control
T/C [13]: 103 % of control

CC(=O)OC1C(=O)OCC1C(=O)N1Cc2cc3ccccc3nc2C1 (stereo not drawn)
T/C (dose: 100.0 mg/kg/injection, schedule: Q01DX001 (ip), vehicle: saline with Tween-80): 104 % of control
T/C (dose: 200.0 mg/kg/injection, schedule: Q01DX001 (ip), vehicle: saline with Tween-80): 101 % of control
T/C (dose: 400.0 mg/kg/injection, schedule: Q01DX001 (ip), vehicle: saline with Tween-80): 105 % of control

O=C(Nc1ccccc1)OCc1c(COC(=O)Nc2ccccc2)c(-c2ccc(Cl)c(Cl)c2)n2c1CCC2
T/C (dose: 12.5 mg/kg/injection, schedule: Q01DX005 (ip), vehicle: distilled water + Tween-80): 122 % of control
T/C (dose: 100.0 mg/kg/injection, schedule: Q01DX005 (ip), vehicle: distilled water + Tween-80): 155 % of control
T/C (dose: 200.0 mg/kg/injection, schedule: Q01DX005 (ip), vehicle: distilled water + Tween-80): 160 % of control

N#Cc1ccc(NC(=O)Nc2cccc(C#N)c2)cc1
T/C (dose: 30.0 mg/kg/injection, schedule: Q01DX005 (ip), vehicle: saline with Tween-80): 100 % of control and 103 % of control
T/C [14]: 89 % of control and 92 % of control and 94 % of control
T/C [15]: 91 % of control and 94 % of control
T/C [16]: 94 % of control

O=CNc1ccc(Cl)cc1C(=O)c1ccccc1
T/C [17]: 108 % of control
T/C (dose: 100.0 mg/kg/injection, schedule: Q01DX009 (ip), vehicle: Klucel (hydroxypropylcellulose) (HPC)): 100 % of control
T/C (dose: 200.0 mg/kg/injection, schedule: Q01DX009 (ip), vehicle: Klucel (hydroxypropylcellulose) (HPC)): 95 % of control

COC(=O)c1c(-c2ccc(OC)c(OC)c2)cn(C)c1C
T/C [6]: 104 % of control
T/C [7]: 96 % of control
T/C [8]: 91 % of control

Cn1c(=O)c2c(=S)sc(=S)[nH]c2n(C)c1=O
T/C (dose: 25.0 mg/kg/injection, schedule: Q04DX002 (ip), vehicle: saline with Tween-80): 106 % of control
T/C (dose: 50.0 mg/kg/injection, schedule: Q04DX002 (ip), vehicle: saline with Tween-80): 106 % of control
T/C (dose: 100.0 mg/kg/injection, schedule: Q04DX002 (ip), vehicle: saline with Tween-80): 106 % of control

CC1=C(C)C(=O)C(C(C)(C)CC(=O)N(C)/N=N/c2nc[nH]c2C(N)=O)=C(C)C1=O
T/C [7]: 155 % of control
T/C [8]: 174 % of control

CCSC(C(OC(C)=O)C(OC(C)=O)C(OC(C)=O)C(COC(C)=O)OC(C)=O)n1cnc2c(=S)nc[nH]c21 (stereo not drawn)
T/C [6]: 107 % of control
T/C [8]: 87 % of control

CC(=O)CC(=O)Cc1oc2c(C(C)=O)c(O)c(C)c(O)c2c1C
T/C (dose: 25.0 mg/kg/injection, schedule: Q01DX009 (ip), vehicle: saline with Tween-80): 90 % of control
T/C [9]: 90 % of control
T/C [11]: 88 % of control
T/C [18]: 90 % of control

Cc1ccc(S(=O)(=O)NNC(=O)c2nc3ccccc3c(=O)[nH]2)cc1
T/C [14]: 100 % of control
T/C [15]: 92 % of control

C=CC[P+](CC[P+](CC=C)(c1ccccc1)c1ccccc1)(c1ccccc1)c1ccccc1
T/C (dose: 6.25 mg/kg/injection, schedule: Q04DX002 (ip), vehicle: saline): 102 % of control
T/C (dose: 12.5 mg/kg/injection, schedule: Q04DX002 (ip), vehicle: saline): 96 % of control

O=c1[nH]c2c(cnn2-c2ccc(Cl)cc2)c(=O)n1-c1cccc(Cl)c1
T/C (dose: 12.5 mg/kg/injection, schedule: Q01DX009 (ip), vehicle: Klucel (hydroxypropylcellulose) (HPC)): 88 % of control
T/C (dose: 25.0 mg/kg/injection, schedule: Q01DX009 (ip), vehicle: Klucel (hydroxypropylcellulose) (HPC)): 94 % of control
T/C [17]: 100 % of control

CCCCCCCCCCCCCCCCCC(=O)CC(=O)C(F)(F)F
T/C [10]: 100 % of control
T/C [12]: 99 % of control
T/C [13]: 99 % of control

C=CCC1C=CC=CN1C(=O)OCC (stereo not drawn)
T/C [1]: 113 % of control
T/C [2]: 113 % of control
T/C [3]: 98 % of control

CSc1ccc(N2C(=O)CSC2=S)cc1Cl
T/C (dose: 50.0 mg/kg/injection, schedule: Q01DX009 (ip), vehicle: suspension in saline): 101 % of control
T/C (dose: 100.0 mg/kg/injection, schedule: Q01DX009 (ip), vehicle: suspension in saline): 99 % of control
T/C (dose: 200.0 mg/kg/injection, schedule: Q01DX009 (ip), vehicle: suspension in saline): 104 % of control

CCOC(=O)c1c(Cl)c(Cc2ccccc2)c(Cl)n2c1nc1ccccc12
T/C [14]: 99 % of control
T/C [15]: 93 % of control
T/C [16]: 89 % of control

CN(CCl)S(=O)(=O)c1ccccc1
T/C [11]: 90 % of control
T/C [18]: 100 % of control
T/C (dose: 400.0 mg/kg/injection, schedule: Q01DX009 (ip), vehicle: saline with Tween-80): 105 % of control
